Results: patent US10624917B2, “Compositions and methods useful for treating or preventing liver diseases or disorders, and promoting weight loss” (YALE UNIVERSITY, priority 2014, dated 2020)
Where no end group is shown, it is not given here.

How the values were obtained:
[1] = test system: active caspase-1 / pro-IL-1β in PECs; test: Western blot of caspase-1 and pro-IL-1β in PECs; assay type: cell-based, mouse; settings: for CGS21680 induced increase in LPS/ATP induced active caspase-1: LPS/ATP + CGS21680 with inhibitor; for active (cleaved) caspase-1: in response to LPS/ATP
Procedure: FIGS. 2A-2H illustrate the finding that adenosine mediates increase in IL-1β via the A2A receptor and amplifies signal 1 and signal 2 pathways. FIG. 2A: LPS primed PECs were treated with NECA (10 μM) in the presence or absence of […] different adenosine receptor antagonists for A1 (DPCPX, 10 nM), A2A (ZM 241385, 10 μM), A2B (MRS1706, 10 nM), A3 (MRS1523, 5 μM), or their combinations for 1 hour, and pulsed with ATP for 20 min. FIGS. 2A-2B: A2A receptor specific agonist (CGS21680) and antagonist ZM 241385 increase and block IL-1β production respectively. […] FIG. 2D: PEC's from A2A receptor deficient cells have low IL-1β production, which is not increased by NECA and CGS 21680. FIG. 2E: CGS21680 increases induction of Il1b mRNA expression, and this was decreased in A2A receptor deficient cells. FIG. 2F: Loss of the A2A receptor in macrophages results in much lower levels of Il1b protein A expression in response to LPS. FIG. 2G: CGS21680 and […] increases and decreases production of cleaved caspase-1, respectively. FIG. 2H: The production of cleaved caspase-1 is decreased in A2A receptor deficient macrophages. Data are expressed as the mean±SD from at least three independent experiments Immunoblots shown are representative results from at least three independent experiments. p<0.05 determined by Student's t-test.
(§1) FIGS. 3A-3I illustrate the finding that adenosine supersedes LPS induced tolerance and increases IL-1β production by upregulating transcription of pro-IL-1β via cAMP-PKA pathway. PECs were used in all of the following experiments. FIG. 3A: Primed (pri) with LPS (100 ng/ml) for 16 hours followed by stimulation (stim) with LPS (100 ng/ml), or NECA (10 μM) or CGS21680 (10 μM) in the presence or absence of LPS (100 ng/ml) for 6 hours. FIG. 3B: Treated with forskolin for 6 hours as indicated doses with and without LPS priming FIG. 3C: Treated with or without NECA (10 μM), CGS21680 (10 μM) or db-cAMP (200 μM) for 6 hours. FIG. 3D: LPS primed and treated with NECA or CGS21680 in the presence and absence of SQ22536, H89 and PKi. FIG. 3E: Primed with LPS for 16 hours and treated with ATP for 20 min, followed by CGS 21680 in the presence or absence of the adenylyl cyclase and PKA inhibitors SQ22536 and H-89. FIG. 3F: Primed with LPS and treated with or without NECA (10 μM) or db-cAMP (200 μM) for 6 hours. FIG. 3G: Treated with or without CGS21680 (10 μM) for 3 hours, and transcription was stopped by adding […] actinomycin D, and RNA samples collected at indicated times-points. FIG. 3H: LPS primed PECs obtained from wild type or A2AR-cKO mice were stimulated with NECA (10 μM) for 6 hours. The cells were harvested and RNA isolated after each treatment and the gene expression of Il1b and other genes as indicated quantified by real-time PCR using specific primers. FIG. 3I: Primed with LPS for 16 hours and treated with ATP for 20 min, followed by CGS 21680 in the presence or absence of SQ22536 or H-89 Immunoblot analysis of the proIL-1β caspase-1 in cell lysate was performed by specific […] and anti caspase-1 p10 antibodies (FIGS. 3C, 3E-3F, 3I). Data are expressed as the mean±SD from three independent experiments Immunoblots shown are representative results from at least three independent experiments. *p<0.05 determined by Student's t-test.
Liver tissue lysates or PECs were lysed in RIPA buffer (10 mM phosphate buffer pH 7.4, 150 mM NaCl, 1% NP-40, 0.5% sodium deoxycholate, 0.1% SDS) supplemented with complete protease inhibitor cocktail (Roche) and 2 mM dithiothreitol. Lysates were resolved in 4-12% Tris-glycine gradient gels (Invitrogen) and transferred to nitrocellulose (Invitrogen) by electro-blotting. The following antibodies were used: rabbit anti-caspase-1 p10 (SC-514, Santa Cruz), goat anti-mouse IL-1β (BAF401, R&D Systems), Rabbit antimouse HIF-1α (NB100-449, Novus Biologicals, Littleton, Colo.).

[2] = test system: IL-1β production in murine peritoneal macrophages (PECs); test: IL-1β secretion (ELISA) by primed, ATP-pulsed peritoneal macrophages (PECs); assay type: cell-based, mouse; settings: for IL-1β production in response to NECA and CGS21680: with PKA inhibition
Procedure: (§2) FIGS. 1A-1J illustrate the finding that adenosine stimulates IL-1β production in NLRP3 inflammasome-dependent manner. Murine peritoneal macrophages (PECs) were obtained from wild type (WT) mice (FIGS. 1A-1D, 1F-1I), Il1r−/− (FIG. 1E) or Nlrp3−/−, ASC−/−, P2xr7−/−, or Caspase-1−/− mice (FIG. 1J) and were primed with LPS for 16 hours. FIG. 1A: This was followed by treatment for 1 hour with adenosine (Ad, 100 μM), adenosine deaminase inhibitor (EHNA, 10 μM), adenosine deaminase (ADA, 10 U ml^−1), ATP diphosphohydrolase (Apyrase, 10 U ml^−1), or erythro-9-(2-hydroxy-3-nonyl) adenine (EHNA, 10 μM) (FIGS. 1B, 1F-1J)). Pan adenosine agonist (NECA, 1 μM, 10 μM) (FIGS. 1C, 1E), or (FIGS. 1D, 1I) by NECA for 1 and 6 hours, and were then pulsed with ATP for 20 min. Enzyme-linked immunosobent assay (ELISA) of IL-1β, TNF-α, IL-10 and IFN-γ secretion were measured in cell supernatants after pulsing with ATP for 5 hours (FIGS. 1A, 1C-1E, 1J) or indicated time-course (FIGS. 1B, 1G-1I). LDH assay was performed after pulsing with ATP as indicated time-course (FIG. 1F). Data are expressed as the mean±SD from at least three independent experiments. *p<0.05 determined by Student's t-test.
C57BL/6 mice were purchased from the National Cancer Institute. ASC−/−, Caspase-1−/−, Nlrp3−/− and P2xr7−/− mice have been described (Rock et al., 2010, Annu Rev Immunol. 28:321-42). A2ora2a flox/flox mice and LysMcre mice were purchased from Jackson Laboratories. HIF-1a flox/flox mice were kindly provided by Dr. Ruslan M Medzhitov (Yale University). 7- to 12-week-old males with a variety of genetic manipulations were used in most experiments. The number of mice in each experimental group was chosen based on previous experience with these experimental models. Mouse peritoneal macrophages (PECs) were isolated by peritoneal lavage 3 days after intraperitoneal injection of 4% thioglycollate solution (B2551, Fluka,). Cells were plated at the density of 3×10^6 cells in 12-well dishes and non-adherent cells were removed after 3 h. Cells primed overnight with 100 ng/ml LPS or 10 ng/ml Pam3CSK4 were treated with various chemicals and followed stimulation. Cells were cultured in DMEM medium complemented with 10% FBS, penicillin/streptomycin and L-glutamine. Mouse bone marrow derived macrophages were isolated from bone marrow cells, and were differentiated for 7 days in complete RPMI-1640 medium supplemented with 2 mM L-glutamine, 100 U/ml penicillin, 100 μg/ml streptomycin, 50 μM 2-mercaptoethanol (all from Invitrogen), 10% heat-inactivated FBS and 20 ng/ml M-CSF (PeproTech). Kupffer cells (KC) were isolated by the density gradient separation of Optiprep (Sigma), and then plates were gently washed and media was replenished after seeding cells for 2 hours to raise KC purity.
Primed PECs were both pulsed for 20 min with 5 mM ATP or 10 μM nigericin, and left untreated until culture supernatants were collected. Secretion of IL-1β was determined by enzyme-linked immunoabsorbent assay (ELISA; R&D Systems).

[3] = test system: PECs; test: LDH release (cell death) assay in PECs; assay type: cell-based; settings: LPS + ATP treated PECs
Procedure: as §2, with “Pan adenosine agonist (NECA, 1 μM, 10 μM) (FIGS. 1C, 1E), or (FIGS. 1D, 1I) by NECA for 1 and 6 hours, and were then pulsed with ATP for 20 min.” left out, “LDH assay was performed after pulsing with ATP as indicated time-course (FIG. 1F).” left out
FIGS. 2A-2H illustrate the finding that adenosine mediates increase in IL-1β via the A2A receptor and amplifies signal 1 and signal 2 pathways. […] Data are expressed as the mean±SD from at least three independent experiments Immunoblots shown are representative results from at least three independent experiments. p<0.05 determined by Student's t-test.

[4] = test system: TNF-α, IL-10 and IFN-γ secretion; test: ELISA of other cytokines in PEC supernatants; assay type: cell-based, mouse; settings: LPS + ATP, adenosine deaminase inhibition
Procedure: as §2

[5] = test system: IL-1β production in murine peritoneal macrophages (PECs); test: IL-1β secretion (ELISA) by primed, ATP-pulsed peritoneal macrophages (PECs); assay type: cell-based, mouse; settings: CpG-B and ATP
[6] = test system: Il1b and other genes in PECs; test: Quantitative real-time RT-PCR gene expression in PECs; assay type: cell-based, mouse; settings: LPS primed PECs, NECA
Procedure: as §1
FIGS. 9A-9H illustrate changes in expression of cytokines and tissue repair genes in peritoneal macrophages in response to adenosine agonists. LPS naive or LPS primed PECs were stimulated with LPS (100 ng ml^−1), CGS21680 (10 μM) or NECA (10 μM) at different time points as indicated. The cells were harvested and RNA isolated after each treatment, and the gene expression of ProIL-1β (Il1b) (FIG. 9A), IL-6 (Il6) (FIG. 9B), IL-4 (Il4) (FIG. 9C), TNF-α (tnfa) (FIG. 9D), TIMP-1 (Timp1) (FIG. 9E), VEGF (vegf) (FIG. 9F), PGK-1 (Pgk1) (FIG. 9G), GLUT-1 (Slc2a1) (FIG. 9H) quantified by real-time PCR using each specific gene primer set as listed. Data are expressed as the mean±SD from three independent experiments. *p<0.05 determined by Student's t-test.
Total RNA was extracted using TRIZOL reagent (Invitrogen), and cDNA was generated with an oligo (dT) primer and the Superscript II system (Invitrogen, USA) followed by analysis using LightCycler 480 system (Roche). q-PCR was performed for Il1b using commercial primer-probe sets (Applied Biosystems Inc.) with DNA master Mix (Roche). Expression of GAPDH was used to standardize the samples, and the results were expressed as a ratio relative to control; q-PCR was performed for tnfa, 116, Txnip, Nlrp3, Hif1a, Timp1, using LightCycler 480 SYBR Green I master mix (Roche). Results were normalized based on the expression of β-actin.

[7] = LPS-primed PECs pulsed with ATP
[8] = in the absence of either LPS or ATP

CCCC(=O)Nc1ncnc2c1ncn2[C@@H]1O[C@@H]2COP(=O)([O-])O[C@H]2[C@H]1OC(=O)CCC.[Na+] [db-cAMP, N6,2′-O-Dibutyryladenosine 3′,5′-cyclic monophosphate sodium salt]
up-regulation of Pro-IL-1β ([1]; 6 hours, FIG. 3C): induced up-regulation | pro-IL1β protein levels ([1]; cells from A2AR-cKO mice): increase

CCCCCC[C@@H]([C@@H](C)O)n1cnc2c(N)ncnc21 (racemic) [EHNA, erythro-9-(2-hydroxy-3-nonyl) adenine]
IL-1β production, time course ([2]; LPS + ATP, time course): sustained increase | IL-1β production [2, 7]: significant increase | IL-1β production [2, 8]: did not result in any detectable IL-1β | IL-1β production by LPS and ATP ([2]; macrophages lacking caspase-1, NLRP3, ASC or P2x7 receptor): did not result in significant production of IL-1β | LDH (lactate dehydrogenase) release, cell death [3]: did not show correlation with the secretion of IL-1β | production of IFN-γ [4]: increase | production of IL-10 [4]: no effect | production of TNF-α [4]: reduction | IL-1β production [5]: increase

O=S(=O)(NCCNC/C=C/c1ccc(Br)cc1)c1cccc2cnccc12 [H-89]
IL-1β production in response to NECA and CGS21680 [2]: significantly reduced | CGS21680 induced increase in LPS/ATP induced active caspase-1 [1]: reduced

Nc1ncnc2c1ncn2C1CCCO1 (stereo not drawn) [SQ22536]
increase in IL-1β induced by CGS21680 and EHNA ([2]; with adenylate cyclase inhibitor): block | CGS21680 induced increase in LPS/ATP induced active caspase-1 [1]: reduced

Nc1ncnc2c1ncn2[C@@H]1O[C@H](CO)[C@@H](O)[C@H]1O [adenosine]
IL-1β production [2, 7]: significantly increased | IL-1β production [2, 8]: did not result in any detectable IL-1β

Nc1nc(NCCc2ccc(O)cc2)nc2nc(-c3ccco3)nn12 [ZM241385]
NECA-increased IL-1β production ([2]; LPS + ATP + NECA with receptor antagonist): inhibited | IL-1β production stimulated by CGS21680, NECA and EHNA ([2]; LPS + ATP with antagonist): inhibited | IL-1β production [2, 7]: block | CGS21680 induced increase in LPS/ATP induced active caspase-1 [1]: inhibited | active (cleaved) caspase-1 [1]: decreased | active (cleaved) caspase-1 ([1]; listed as ZM241395): decreases

COC(=O)c1ccc(O)c(NC(=O)COc2ccc(C34CC5CC(CC(C5)C3)C4)cc2)c1 [CAY10585]
adenosine agonist induced IL-1β production ([2]; LPS primed PECs, ATP pulse): significantly decrease | adenosine agonist induced Il1b expression [6]: significantly decrease

PKI 14-22 amide (SGRTGRRNA-NH2; UniProt P61925 14-22, looked up, fragment)
IL-1β production in response to NECA and CGS21680 [2]: significantly reduced

B1: adenosine deaminase: Adenosine deaminase obtained from Worthington Biochemical corporation (protein, UniProt P56658 2-363, looked up)
Adenosine deaminase: AQTPAFNKPKVELHVHLDGAIKPETILYYGRKRGIALPADTPEELQNIIGMDKPLSLPEFLAKFDYYMPAIAGCREAVKRIAYEFVEMKAKDGVVYVEVRYSPHLLANSKVEPIPWNQAEGDLTPDEVVSLVNQGLQEGERDFGVKVRSILCCMRHQPSWSSEVVELCKKYREQTVVAIDLAGDETIEGSSLFPGHVKAYAEAVKSGVHRTVHAGEVGSANVVKEAVDTLKTERLGHGYHTLEDATLYNRLRQENMHFEVCPWSSYLTGAWKPDTEHPVVRFKNDQVNYSLNTDDPLIFKSTLDTDYQMTKNEMGFTEEEFKRLNINAAKSSFLPEDEKKELLDLLYKAYGMPSPASAEQCL
IL-1β production [2, 7]: significant reduction
